According to patent publication US8343911B2, “Methods of inhibiting and treating bacterial biofilms by metal chelators” (University of Iowa Research Foundation, priority 2002, dated 2013):

Test system: P. aeruginosa biofilms
Assay: Antimicrobial susceptibility of biofilms grown in rotating disk reactor (viable cell counts)
Type: cell-based
Conditions: control biofilms grown without conalbumin, FIG. 5
Method: P. aeruginosa biofilms for susceptibility tests were grown in a rotating disk reactor. Fe-unsaturated conalbumin (Sigma Chemical Co.) was added to standard biofilm medium at indicated concentrations for the duration of biofilm growth. Discs and attached bacteria were then washed 3 times in distilled water, and treated for 4 h in 1 ml of H2O2 (Fisher Scientific) or tobramycin (Eli Lilly, Indianapolis, Ind.) at indicated concentrations. The treated discs were washed 3 times, and bacteria were removed and dispersed in 2 ml sterile PBS by homogenization (Brinkman Homogenizer, model 10/35). Viable cell numbers were enumerated by plate counting.

Structure (SMILES) | effect on viability of control biofilms (500 mM H2O2, 4 h of treatment) | effect on viability of control biofilms (1000 μg/ml tobramycin, 4 h of treatment)
OO [H2O2, reference compound] | minimal effects on viability | 
NC[C@H]1O[C@H](O[C@H]2[C@H](O)[C@@H](O[C@H]3O[C@H](CO)[C@@H](O)[C@H](N)[C@H]3O)[C@H](N)C[C@@H]2N)[C@H](N)C[C@@H]1O [tobramycin, reference compound] |  | minimal effects on viability
